Type in all cases: functional, T cell line
A short description of assay [1]: Induction of anti-CD3/CD28 antibodies-stimulated human T cell activation at 4 uM assessed fold increase in IL-2 secretion measured by ELISA assay. For orientation: An ELISA detects its analyte on a solid surface through an enzyme-linked reagent.
Assay [2] is described as follows: Induction of anti-CD3/CD28 antibodies-stimulated human T cell activation at 1 uM assessed fold increase in IL-2 secretion measured by ELISA assay.
Assay [3] is described as follows: Induction of anti-CD3/CD28 antibodies-stimulated human T cell activation at 0.3 uM assessed fold increase in IL-2 secretion measured by ELISA assay.
The nature of assay [4]: Induction of anti-CD3 antibodies-stimulated human T cell activation at 8 uM assessed fold increase in IL-2 secretion measured by ELISA assay. Also: reference of the scale not given here.
A short description of assay [5]: Induction of anti-CD3 antibodies-stimulated human T cell activation at 1 uM assessed fold increase in IL-2 secretion measured by ELISA assay. Also: reference of the scale not given here.
The nature of assay [6]: Induction of anti-CD3/CD28 antibodies-stimulated human T cell activation at 4 uM assessed fold increase in CD25 expression measured by ELISA assay.
A short description of assay [7]: Induction of anti-CD3/CD28 antibodies-stimulated human T cell activation at 1 uM assessed fold increase in CD25 expression measured by ELISA assay.
The nature of assay [8]: Induction of anti-CD3/CD28 antibodies-stimulated human T cell activation at 0.3 uM assessed fold increase in CD25 expression measured by ELISA assay.
A short description of assay [9]: Induction of anti-CD3 antibodies-stimulated human T cell activation at 8 uM assessed fold increase in CD25 expression measured by ELISA assay. Also: reference of the scale not given here.
Assay [10] is described as follows: Induction of anti-CD3 antibodies-stimulated human T cell activation at 1 uM assessed fold increase in CD25 expression measured by ELISA assay. Also: reference of the scale not given here.

In the case of `CC(Cc1nncn1C)c1cc(C2CCC2)cc(N2Cc3c(cccc3C(F)(F)F)C2=O)c1` (stereo not given), the “fold change (FC)” value in assay [1] is recorded as 1.01; in assay [2], 1.01; in assay [3] it was 1.01; in [4] it was 0.051; in assay [5] it was 0.051; in assay [6], 1.01. The “fold change (FC)” value is listed as 1.01 in assay [7], 1.01 in assay [8], 0.801 in assay [9] and 0.601 in assay [10].
With `C[C@H](Sc1nncn1C)c1cccc(NC(=O)c2cc(C(C)(C)O)c(Cl)cn2)c1`, the “fold change (FC)” value in assay [1] is recorded as 1.01; in assay [2], 1.01; in assay [3], 1.01; in assay [4], “<=0.05”; in assay [5], “<=0.05”; in [6] it was 1.01. For the same molecule, the “fold change (FC)” value in assay [7] is given as 1.01; in assay [8] it was 1.01; in assay [9] it was 0.601; in [10], “<=0.6”.
Consider `C[C@H](Cc1nncn1C)c1cccc(NC(=O)c2cn3ccnc3cn2)c1`, for which the “fold change (FC)” value in assay [1] was found to be 1.01; in [2], 1.01; in assay [3], 1.01; in assay [4] it was 0.101; in assay [5], 0.051; in [6], 1.01. For the same molecule, the “fold change (FC)” value in [7] is 1.01; in [8], “<=1”; in assay [9] it was 0.801; in [10], 0.601.
For the molecule `C[C@H](Cc1nncn1C)c1cccc(NC(=O)c2cc(C(=O)N3C[C@@H](O)C[C@H]3C)ccn2)c1`, the “fold change (FC)” value in assay [1] is listed as “<=1”; in assay [2] it was “<=1”; in assay [3], “<=1”; in assay [4], 0.101; in assay [5], 0.101; in assay [6], 1.51. Moreover, the “fold change (FC)” value is reported as 1.01 in [7], 1.01 in assay [8], “<=0.6” in assay [9] and “<=0.6” in [10].
With `C[C@H](CO)Nc1cc([C@H](C)Cc2nncn2C)cc(N2Cc3c(cccc3C(F)(F)F)C2=O)n1`, the “fold change (FC)” value in [1] is reported as 5; in [2] it was 2.51; in [3] it was 1.01; in assay [4] it was “>=0.201”; in assay [5], 0.051; in [6], 1.31. Moreover, the “fold change (FC)” value in [7] is given as 1.01; in assay [8], 1.01; in assay [9], “>=1.001”; in [10], 0.801.
For `C[C@@H](c1cccc(N2Cc3c(cccc3C(F)(F)F)C2=O)c1)C(F)(F)c1nncn1C`, the “fold change (FC)” value in assay [1] was 2.51; in [2], 1.01; in assay [3], 1.01; in assay [4], 0.101; in assay [5], “<=0.05”; in assay [6], 1.01. In addition, the “fold change (FC)” value in [7] is given as 1.01; in assay [8] it was 1.01; in assay [9] it was 0.801; in assay [10] it was 0.601.
As for `Cn1cnnc1C(F)(F)[C@](C)(F)c1cccc(N2Cc3c(cc(C(=O)N4CC(C(F)F)C4)cc3C(F)(F)F)C2=O)c1`, the “fold change (FC)” value was determined as 1.01 in [1]; 1.01 in assay [2]; 1.01 in assay [3]; 0.051 in [4]; 0.051 in [5]; 1.01 in assay [6]. Also, the “fold change (FC)” value in [7] is recorded as 1.01; in assay [8], 1.01; in [9], 0.801; in [10] it was 0.601.
In the case of `Cc1ccnn1CC(C)c1cccc(NC(=O)c2cccc(C(F)(F)F)n2)c1` (stereo not given), the “fold change (FC)” value in [1] is on record as 1.01; in [2] it was “<=1”; in assay [3], “<=1”; in assay [4], 0.051; in assay [5], 0.051; in [6] it was 1.51. Besides, the “fold change (FC)” value is 1.31 in assay [7], 1.51 in [8], “<=0.6” in [9] and “<=0.6” in assay [10].
In the case of `C[C@H](Sc1nncn1C)c1cccc(NC(=O)c2cc(C(F)(F)F)cc(C3CC3)n2)c1`, the “fold change (FC)” value in assay [1] was 1.01; in assay [2] it was “<=1”; in [3] it was “<=1”; in assay [4], “<=0.05”; in [5], “<=0.05”; in [6], 1.31. In addition, the “fold change (FC)” value in assay [7] is given as 1.01; in assay [8], 1.01; in assay [9], “<=0.6”; in assay [10] it was “<=0.6”.
Turning to `C[C@H](Cc1nncn1C1CC1)c1cccc(N2Cc3c(cccc3C(F)(F)F)C2=O)c1`, the “fold change (FC)” value in [1] is listed as 1.01; in assay [2], 1.01; in assay [3], “<=1”; in assay [4], “<=0.05”; in assay [5] it was “<=0.05”; in assay [6], 1.01. For the same molecule, the “fold change (FC)” value worked out at 1.01 in assay [7], 1.01 in assay [8], 0.801 in assay [9] and 0.601 in assay [10].
On to `C[C@H](Sc1nncn1C)c1cc(F)cc(N2Cc3c(cccc3C(F)(F)F)C2=O)c1`, for which the “fold change (FC)” value in [1] is “<=1”; in assay [2], 1.01; in [3] it was “<=1”; in [4] it was “<=0.05”; in assay [5], “<=0.05”; in assay [6] it was 1.01. The “fold change (FC)” value is 1.01 in [7], 1.01 in assay [8], 0.801 in assay [9] and “<=0.6” in assay [10].
For `CC1CCc2c1n[nH]c2C(=O)Nc1cccc([C@H](C)Cc2nncn2C)c1` (stereo not given in full), the “fold change (FC)” value in assay [1] is reported as 5; in assay [2] it was 2.51; in [3], 1.01; in [4], “>=0.201”; in [5], 0.101; in assay [6], 1.01. The “fold change (FC)” value in [7] is listed as “<=1”; in [8], “<=1”; in assay [9], “>=1.001”; in assay [10], 0.601.
Regarding `Cc1ncc(C(=O)Nc2cccc([C@H](C)Sc3nncn3C)c2)nc1C1CC1`, the “fold change (FC)” value was 2.51 in [1]; 1.01 in [2]; “<=1” in assay [3]; 0.051 in [4]; “<=0.05” in assay [5]; 1.51 in assay [6]. Also, the “fold change (FC)” value in assay [7] is on record as 1.31; in assay [8] it was 1.31; in assay [9] it was 0.801; in assay [10], 0.801.
As to `C[C@H](Cc1nncn1C)c1cc(NC2CCC2)nc(N2Cc3c(cccc3C(F)(F)F)C2=O)c1`, the “fold change (FC)” value in assay [1] is listed as 1.01; in [2], 1.01; in assay [3], 1.01; in assay [4], 0.151; in assay [5], “<=0.05”; in assay [6] it was 1.01. Besides, the “fold change (FC)” value is on record as 1.01 in assay [7], 1.01 in assay [8], “>=1.001” in assay [9] and 0.601 in assay [10].
Regarding `C[C@H](Cc1nncn1C)c1cccc(NC(=O)c2cccc(S(C)(=O)=O)n2)c1`, the “fold change (FC)” value in assay [1] is 2.51; in [2] it was 1.01; in assay [3], 1.01; in assay [4], 0.051; in [5], 0.051; in assay [6] it was “>=1.76”. Besides, the “fold change (FC)” value in [7] is listed as “>=1.76”; in assay [8], 1.01; in assay [9], “<=0.6”; in [10], “<=0.6”.
As for `Cc1cccc2nc(C(=O)Nc3cccc([C@H](C)Sc4nncn4C)c3)ccc12`, the “fold change (FC)” value in assay [1] was “>=7.5”; in assay [2], 5; in [3] it was 2.51; in assay [4], 0.101; in [5], “<=0.05”; in assay [6] it was 1.01. For the same molecule, the “fold change (FC)” value in assay [7] worked out at 1.01; in assay [8], 1.01; in assay [9] it was 0.801; in assay [10], 0.801.
`Cn1cnnc1C(F)[C@](C)(F)c1cccc(N2Cc3c(cccc3C(F)(F)F)C2=O)c1` (single isomer, unassigned): the “fold change (FC)” value in [1] was “<=1”; in [2], “<=1”; in assay [3], “<=1”; in assay [4] it was 0.051; in [5], “<=0.05”; in assay [6], 1.01. In addition, the “fold change (FC)” value in assay [7] is on record as “<=1”; in [8], “<=1”; in assay [9] it was 0.601; in assay [10], “<=0.6”.

Source of the values: ChEMBL document CHEMBL5050844 (2019).
